Results on twelve compounds are retold here after patent US5686486A, “4-hydroxy-benzopyran-2-ones and 4-hydroxy-cycloalkyl[b]pyran-2-ones useful to treat retroviral infections” (priority 1995, dated 1997).

The Ki is the equilibrium dissociation constant of an inhibitor or competing ligand from its target.

In assay [1] the target is T1, HIV-1 protease (Human immunodeficiency virus type 1 group M subtype B, UniProt P04585). In words: biochemical. To be noted: for inhibition at 0.123 µM: read-out: HIV-1 Protease % Inhib, dose 0.123 uM; for inhibition at 0.37 µM: read-out: HIV-1 Protease % Inhib, dose 0.370 uM; for inhibition at 1.1 µM: read-out: HIV-1 Protease % Inhib, dose 1.100 uM; for inhibition at 3.3 µM: read-out: HIV-1 Protease % Inhib, dose 3.300 uM; for inhibition at 10 µM: read-out: HIV-1 Protease % Inhib, dose 10.000 uM; for inhibition at 30 µM: read-out: HIV-1 Protease % Inhib, dose 30.000 uM. Summed up:
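Biotinylated, FITC-labeled peptide substrate (20 μl of 0.2 μM) incubated with HIV-1 protease (10 μl of 0.1 μM) and compound in 0.1 M sodium acetate pH 5.5, 1.0 M NaCl, 0.05% NP-40, 1 h, room temperature, dark. Streptavidin beads then capture uncleaved substrate; filtered labeled product read by fluorescence, giving percent inhibition.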

In assay [2] the target is T1, HIV-1 protease. In words: biochemical. The conditions noted are these: read-out: HIV-1 FITC KI. In outline: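 Ki from two-fold serial inhibitor dilutions (24–48 concentrations) with 40 nM HIV-1 protease stock and 200 μM substrate stock, 90 min at room temperature; stopped with avidin beads. Reference inhibitor run in parallel; Ki by nonlinear least-squares fit.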

Values joined by “and” are separate entries in the source; they are usually repeats but may differ in a detail not shown here. Identical values can stand only once.

In the case of `O=c1oc2c(c(O)c1C(c1cccc(NS(=O)(=O)c3cccc(N(CCO)CCO)c3)c1)C1CC1)CCCCCC2` (centres unmarked) [Example 355 (Second Title Compound), N-[3-[Cyclopropyl(5,6,7,8,9,10-hexahydro-4-hydroxy-2-oxo-2H-cycloocta[b]pyran-3-yl)methyl]phenyl]-3-[(bis-(2-ethanol))amino]-benzenesulfonamide], on HIV-1 protease [1], the inhibition at 0.123 µM was found to be 112%, the inhibition at 0.37 µM amounted to 111%, the inhibition at 1.1 µM was 107% and the inhibition at 3.3 µM amounted to 110%. Also, on HIV-1 protease [1], the inhibition at 10 µM came out at 110% and the inhibition at 30 µM was 108%. Moreover, the inhibition constant Ki on HIV-1 protease [2] came out at 1.06 nM.
Regarding `O=c1oc2c(c(O)c1C(c1cccc(NS(=O)(=O)c3cccc(CO)c3)c1)C1CC1)CCCCCC2` (centres unmarked) [Example 356, N-[3-[Cyclopropyl(5,6,7,8,9,10-hexahydro-4-hydroxy-2-oxo-2H-cycloocta[b]pyran-3-yl)methyl]phenyl]-3-[methanol]-benzenesulfonamide], on HIV-1 protease [1], the inhibition at 0.123 µM was 97.7%, the inhibition at 0.37 µM was determined as 97.2%, the inhibition at 1.1 µM amounted to 97.9% and the inhibition at 3.3 µM came to 101%. In addition, on HIV-1 protease [1], the inhibition at 10 µM is 102% and the inhibition at 30 µM came out at 100%. Further, the Ki at HIV-1 protease [2] turned out to be 1.32 nM.
Take `O=c1oc2c(c(O)c1C(c1cccc(NS(=O)(=O)c3cccc(N4CCCS4(=O)=O)c3)c1)C1CC1)CCCCCC2` (centres unmarked) [Example 357, N-[3-[Cyclopropyl[3-(2-isothiazolidinyl)phenyl]methyl-(5,6,7,8,9,10-hexahydro4-hydroxy-S,S'-dioxide)methyl]phenyl]-3-[(phenylsulfonyl)amino]4-2H-cycloocta[b]pyran2-one]: on HIV-1 protease [1], the inhibition at 0.123 µM is 104%, the inhibition at 0.37 µM stood at 97.2%, the inhibition at 1.1 µM is 101% and the inhibition at 3.3 µM turned out to be 98.3%. Moreover, on HIV-1 protease [1], the inhibition at 10 µM was determined as 96.8% and the inhibition at 30 µM was 89.6%. Further, the Ki at HIV-1 protease [2] is 0.62 nM.
Regarding `CS(=O)(=O)Nc1cccc(C(c2c(O)c3c(oc2=O)CCCCC3)C2CC2)c1` (centres unmarked) [Example 364, N-[3-[Cyclopropyl(2,5,6,7,8,9-hexahydro-4-hydroxy-2-oxocyclohepta[b]pyran-3-yl)methyl]phenyl]-methanesulfonamide], on HIV-1 protease [1], the inhibition at 0.37 µM stood at 17.2%, the inhibition at 1.1 µM was determined as 53.5%, the inhibition at 3.3 µM stood at 78.7% and the inhibition at 10 µM worked out at 100%. Further, the inhibition at 30 µM at HIV-1 protease [1] came to 90.2%. Further, the Ki on HIV-1 protease [2] amounted to 118 nM.
For `NC(=O)c1ccc(S(=O)(=O)Nc2cccc(C(c3c(O)c4c(oc3=O)CCCCCC4)C3CC3)c2)cc1` (centres unmarked) [Example 365A, 4-[[[3-[Cyclopropyl(5,6,7,8,9,10-hexahydro-4-hydroxy-2-oxo-2H-cycloocta[b]pyran-3-yl)methyl]phenyl]amino]sulfonyl]-benzamide], at HIV-1 protease [1], the inhibition at 0.123 µM turned out to be 83.8%, the inhibition at 0.37 µM was 106%, the inhibition at 1.1 µM was 115% and the inhibition at 3.3 µM worked out at 116%. Moreover, on HIV-1 protease [1], the inhibition at 10 µM worked out at 117% and the inhibition at 30 µM was 116%. Also, at HIV-1 protease [2], the inhibition constant Ki was 1.86 nM.
For the compound `I.O=c1oc2c(c(O)c1C(c1cccc(NS(=O)(=O)CCCN3CCOCC3)c1)C1CC1)CCCCCC2` (centres unmarked) [Example 365B (Third Title Compound), N-[3-[Cyclopropyl(5,6,7,8,9,10-hexahydro-4-hydroxy-2-oxo-2H-cycloocta[b]pyran-3-yl)methyl]phenyl]-4-morpholinepropanesulfonamide hydrogen iodide salt], the “HIV-1 Protease % Inhib” value on HIV-1 protease [1] (dose 0.123 uM) was found to be 29.06%; at HIV-1 protease [1] (dose 0.370 uM) it was 56.47%; on HIV-1 protease [1] (dose 1.100 uM) it was 93.46%; at HIV-1 protease [1] (dose 3.300 uM), 90.63%; at HIV-1 protease [1] (dose 10.000 uM), 90.94%; at HIV-1 protease [1] (dose 30.000 uM) it was 85.31%. Further, the Ki at HIV-1 protease [2] is 14.3 nM.
As for `O=c1oc2c(c(O)c1C(c1cccc(NS(=O)(=O)CCCI)c1)C1CC1)CCCCCC2` (centres unmarked) [Example 365C, 3-Iodo-N-[3-[cyclopropyl(5,6,7,8,9,10-hexahydro-4-hydroxy-2-oxo-2H-cycloocta[b]pyran-3-yl)methyl]phenyl]-1-propanesulfonamide], on HIV-1 protease [1], the inhibition at 0.123 µM stood at 63%, the inhibition at 0.37 µM came to 93.6%, the inhibition at 1.1 µM turned out to be 102% and the inhibition at 3.3 µM came to 71.5%. Further, on HIV-1 protease [1], the inhibition at 10 µM was 87.5% and the inhibition at 30 µM was 83.5%. The Ki on HIV-1 protease [2] was found to be 16.6 nM.
For the compound `CCCC(c1ccccc1)c1c(O)c2c(oc1=O)CCCCCC2` (centres unmarked) [Example 369, 5,6,7,8,9,10-Hexahydro-4-hydroxy-3-(1-phenylbutyl)-2H-cycloocta[b]pyran-2-one], on HIV-1 protease [1], the inhibition at 0.123 µM is 54.9%, the inhibition at 0.37 µM was determined as 83.5%, the inhibition at 1.1 µM came to 96% and the inhibition at 3.3 µM was 97.1%. Moreover, on HIV-1 protease [1], the inhibition at 10 µM was 111% and the inhibition at 30 µM turned out to be 93.9%. In addition, at HIV-1 protease [2], the Ki was determined as 28.5 nM.
As to `CC(C)C(c1cccc(N)c1)c1c(O)c2c(oc1=O)CCCCCC2` (centres unmarked) [Example 371, 3-[1-(3-Aminophenyl)-2-methylpropyl]-5,6,7,8,9,10-hexahydro-4-hydroxy-2H-cycloocta[b]pyran-2-one], on HIV-1 protease [1], the inhibition at 0.123 µM was found to be 86.8%, the inhibition at 0.37 µM came to 109%, the inhibition at 1.1 µM is 110% and the inhibition at 3.3 µM was determined as 113%. Besides, at HIV-1 protease [1], the inhibition at 10 µM stood at 108% and the inhibition at 30 µM is 110%. Further, the Ki on HIV-1 protease [2] came out at 7.35 nM.
Take `CC(C)C(c1cccc(NS(=O)(=O)c2ccc(Cl)cc2)c1)c1c(O)c2c(oc1=O)CCCCCC2` (centres unmarked) [Example 373, 4-Chloro-N-[3-[1-(6,7,8,9,10-hexahydro-4-hydroxy-2-oxo-2H-cycloocta[b]pyran-3-yl)-2-methylpropyl]phenyl]-benzenesulfonamide]: at HIV-1 protease [1], the inhibition at 0.123 µM was found to be 31.8%, the inhibition at 0.37 µM was 68.9%, the inhibition at 1.1 µM is 87% and the inhibition at 3.3 µM was 97.1%. In addition, at HIV-1 protease [1], the inhibition at 10 µM is 102% and the inhibition at 30 µM was 105%. Moreover, at HIV-1 protease [2], the Ki was 18.3 nM.
For the compound `CC(C)C(c1cccc(NS(=O)(=O)c2cn(C)cn2)c1)c1c(O)c2c(oc1=O)CCCCCC2` (centres unmarked) [Example 374, N-[3-[1-(5,6,7,8,9,10-Hexahydro-4-hydroxy-2-oxo-2H-cycloocta[b]pyran-3-yl)-2-methylpropyl]phenyl]-1-methyl-1H-imidazole4-sulfonamide], on HIV-1 protease [1], the inhibition at 0.123 µM worked out at 121%, the inhibition at 0.37 µM is 121%, the inhibition at 1.1 µM was determined as 131% and the inhibition at 3.3 µM was found to be 125%. Besides, at HIV-1 protease [1], the inhibition at 10 µM worked out at 129% and the inhibition at 30 µM was 128%. For the same compound, the Ki at HIV-1 protease [2] is 1.3 nM and 0.72 nM.
With `CCCC(c1cccc(N)c1)c1c(O)c2c(oc1=O)CCCCCC2` (centres unmarked) [Example 376, 3-[1-(3-Aminophenyl)butyl]-5,6,7,8,9,10-hexahydro4-hydroxy-2H-cycloocta[b]pyran-2-one], on HIV-1 protease [1], the inhibition at 0.123 µM stood at 10.6%, the inhibition at 0.37 µM was 33.7%, the inhibition at 1.1 µM amounted to 75.3% and the inhibition at 3.3 µM was 96.5%. Further, at HIV-1 protease [1], the inhibition at 10 µM was 102% and the inhibition at 30 µM came out at 103%. In addition, on HIV-1 protease [2], the Ki worked out at 195 nM.
